In patent US20250282829A1, “ENGINEERED SYNTHETIC PEPTIDES, COMPOSITIONS COMPRISING SAME, AND METHODS OF USE THEREOF FOR TREATING MALIGNANT GLIOMAS” (INSTYTUT BIOLOGII DOSWIADCZALNEJ IM. MARCELEGO NENCKIEGO …, priority 2022, published 2025):

Experiments:
[1] = molecular target: T1, alphav integrins (Homo sapiens, UniProt P06756); conditions: large number of patients, phase III; cited from earlier work
T1 construct: host or cells: patients

[2] = molecular target: recombinant OPN protein (Homo sapiens, UniProt P10451); experiment: ELISA assessing peptide-protein binding; conditions: N-terminal biotin peptides on OPN-coated plates
Sequence of recombinant OPN protein (P10451 17-314): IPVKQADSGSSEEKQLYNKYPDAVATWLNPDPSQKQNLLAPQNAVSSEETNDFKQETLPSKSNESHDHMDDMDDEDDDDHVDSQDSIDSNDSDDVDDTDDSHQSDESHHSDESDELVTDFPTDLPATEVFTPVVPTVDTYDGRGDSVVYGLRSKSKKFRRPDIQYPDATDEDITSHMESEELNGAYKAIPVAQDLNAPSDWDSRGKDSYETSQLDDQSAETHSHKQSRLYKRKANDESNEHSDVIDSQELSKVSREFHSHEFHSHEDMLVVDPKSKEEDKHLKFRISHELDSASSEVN
Description: FIGS. 2A and 2B. OPN-binding peptides. (FIG. 2A) OPN binding peptides were identified using peptide microarrays comprising synthetic peptides. Images of peptide microarrays after incubation with PBS buffer (control), with rhOPN and after immunochemical staining. Control peptides (peptide containing Myc tag—positive control) and peptides with the highest signal were marked on the microarray image. (FIG. 2B) OPN binding peptides identified using ELISA. Peptides with the strongest binding to OPN were selected. Means ±SD are shown, standard deviations were calculated from three independents measurements.
To verify the obtained results, the ELISA method assessing peptide-protein binding was used. In the assay, 96-well ELISA plates were coated with recombinant OPN protein. Uncoated wells were used as controls. Unbound proteins were then washed away and the remaining non-specific binding was blocked with bovine serum protein (BSA). Test peptides with N-terminal biotin attached were added. After incubation, unbound peptides were removed by washing several times. Peptides that bound to OPN were detected using a primary anti-biotin antibody and a secondary antibody linked to horseradish peroxidase. This enzyme catalyses a reaction in which a coloured product is formed from the added substrate. The amount of bound peptides was proportional to the amount of coloured product, which was measured using a spectrophotometer. Of the 52 integrin receptor-derived peptides tested, 9 OPN-binding peptides were identified: I3, I4, I20, I32, I38, I40, I47, I49, I50 (FIG. 2B). The following peptides were selected for further analysis: […], I4, I20, I32, I38, I40, I47, I49, I50.

[3] = tested on: U87 MG cells stimulated by BV2 microglial cells; experiment: Matrigel invasiveness of U87 MG cells in co-culture with BV2 microglia; format: cell-based, human; conditions: 100 μM, 18 h
Description: (§1) FIG. 4. Effect of OPN binding peptides on U87 MG cell invasiveness in the presence of murine BV2 and human SV40 microglial cells. (K−)—negative control—invasiveness of U87 MG cells without microglia; (K+)—positive control, invasiveness of U87 MG dependent on BV2 or SV40 microglia, defined as 100%; DMSO-cells treated with 0.2% DMSO-peptide solvent. Results are presented as means ±standard deviation calculated from three independent biological replicates. Selected peptides block microglia-dependent invasiveness.
(§2) Studies conducted by the present inventors indicate an important role of the OPN protein in the reprogramming of microglia and peripheral macrophages by glioblastoma cells to a protumorigenic phenotype (Ellert-Miklaszewska et al. 2016). […] Investigating the contribution of human OPN to human glioblastoma growth is important in the context of using a peptide that binds human OPN produced by glioma and can block communication between the glioma and the microenvironment. The U87 MG RFP human glioblastoma cell line was established with silenced expression of the OPN protein (shOPN). […] The number of glioma cells actively penetrating the Matrigel Matrix layer (BD Biosciences, extracellular matrix surrogate) in the presence of SV40 human microglial cells was counted. Microglial cells are plated on 24-well plate, after 24 hours, inserts previously covered with Matrigel suspension are placed in the wells, and glioblastoma cells are seeded on its surface. The tested compounds, potentially blocking the invasiveness of cells, are added in a certain concentration to the medium in both the lower and upper layers of the system. After 18 hours of incubation, the Matrigel is removed and the cells on the insert membrane (invading cells) are fixed and stained with a DAPI fluorescent marker. Slides were then photographed using a fluorescence microscope and cells were counted using Image J software (imagej.nih.gov/ij/).
(§3) The effect of selected OPN-binding peptides on the invasiveness of U87 MG cells stimulated by the presence of microglial cells was investigated. […]

[4] = tested on: U87 MG cells and SV40 human microglia cells; experiment: Matrigel invasiveness of U87 MG cells with SV40 human microglia; format: cell-based
Description: as §1, §2, §3

[5] = tested on: human glioblastoma U87 MG RFP cells implanted in the brain of nude mice; experiment: Mouse model of human glioblastoma, intratumoural osmotic pump, MRI tumour size; format: in vivo; conditions: osmotic pump for 3 weeks, MRI T2, control peptide I49S
Description: FIGS. 5A and 5B. Effect of peptide 149 on glioblastoma growth in mice. (FIG. 5A) Representative images obtained after vital MRI imaging. The pictures show a section through the center of the tumour, showing the cannula supplying the peptide from the osmotic pump. (FIG. 5B) Tumour volume (n=10) calculated using OsiriX DICOM Viewer from MRI scans.
The anticancer effect of the 149 peptide has been tested. The model of human glioblastoma U87 MG RFP cells implanted in the brain of nude (immunodeficient) mice was used. Peptides were administered via osmotic pumps delivering the peptide directly to the tumour at a constant rate. […] Peptide I49 or control peptide I49S were administered using pumps for 3 weeks, pumps were installed in the mouse brain immediately after implantation of U87 MG RFP cells. Magnetic resonance imaging (MRI T2) was used to assess the size of the tumours.

T1 sequence (P06756 31-1048): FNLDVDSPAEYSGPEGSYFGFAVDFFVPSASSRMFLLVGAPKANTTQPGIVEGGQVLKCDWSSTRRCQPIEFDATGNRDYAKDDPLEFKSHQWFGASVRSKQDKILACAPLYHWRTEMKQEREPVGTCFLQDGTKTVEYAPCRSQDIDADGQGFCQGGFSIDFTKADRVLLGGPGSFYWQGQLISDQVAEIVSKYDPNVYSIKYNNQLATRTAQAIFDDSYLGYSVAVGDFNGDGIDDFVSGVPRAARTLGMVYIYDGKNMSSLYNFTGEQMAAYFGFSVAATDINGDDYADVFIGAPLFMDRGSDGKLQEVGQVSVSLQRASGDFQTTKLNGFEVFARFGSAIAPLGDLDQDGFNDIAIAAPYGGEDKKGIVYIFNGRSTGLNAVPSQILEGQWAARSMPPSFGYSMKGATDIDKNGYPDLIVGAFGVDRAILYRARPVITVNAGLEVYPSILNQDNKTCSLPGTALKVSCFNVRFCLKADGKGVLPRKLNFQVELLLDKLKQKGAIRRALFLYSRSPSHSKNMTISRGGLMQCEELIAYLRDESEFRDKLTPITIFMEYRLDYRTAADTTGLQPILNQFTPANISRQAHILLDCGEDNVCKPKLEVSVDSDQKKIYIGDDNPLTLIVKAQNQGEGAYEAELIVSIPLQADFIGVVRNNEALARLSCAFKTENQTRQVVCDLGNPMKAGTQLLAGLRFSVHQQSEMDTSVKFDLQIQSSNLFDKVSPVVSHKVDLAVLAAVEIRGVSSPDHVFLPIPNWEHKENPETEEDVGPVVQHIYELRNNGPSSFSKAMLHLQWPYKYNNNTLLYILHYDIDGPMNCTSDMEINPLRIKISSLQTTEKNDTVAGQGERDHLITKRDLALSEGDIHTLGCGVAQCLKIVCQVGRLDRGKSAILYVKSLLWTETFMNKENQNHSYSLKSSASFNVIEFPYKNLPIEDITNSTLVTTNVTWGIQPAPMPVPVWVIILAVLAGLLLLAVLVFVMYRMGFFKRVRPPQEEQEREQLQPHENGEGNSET

Row | peptide binding to OPN in ELISA [2] | Compound | clinical effectiveness [1] | inhibition of microglia-dependent glioma cell invasiveness [3] | effect on invasiveness of U87 cells in the presence of human SV40 microglia [4] | tumour growth compared to the control group [5]
1 | – | CC(C)[C@H]1C(=O)N[C@@H](CCCN=C(N)N)C(=O)NCC(=O)N[C@@H](CC(=O)O)C(=O)N[C@H](Cc2ccccc2)C(=O)N1C [cilengitide, cyclo-(Arg-Gly-Asp-DPhe-NMe-Val)] | did not show the effectiveness | – | – | –
2 | OPN-binding | SKYDPNVYSIKYNN (listed as Homo sapiens) [I40] | – | inhibited microglia-dependent glioma cell invasiveness | inhibited the invasiveness | –
3 | OPN-binding | SLYNFTGEQMAAYF (listed as Homo sapiens) [I50] | – | inhibited microglia-dependent glioma cell invasiveness | inhibited the invasiveness | –
4 | OPN-binding | YDGKNMSSLYNFTG [I49] | – | inhibited microglia-dependent glioma cell invasiveness | inhibited the invasiveness | reduction in tumour growth
